Results from paper PMC2785468, “Androgen Receptor Mutations Associated with Androgen Insensitivity Syndrome: A High Content Analysis Approach Leading to Personalized Medicine” (PLoS ONE, 2009).

Biological target: T1, wild type AR (Homo sapiens, UniProt P10275)
T1 construct: expressed in transfected cells
T1 sequence (P10275 1-920): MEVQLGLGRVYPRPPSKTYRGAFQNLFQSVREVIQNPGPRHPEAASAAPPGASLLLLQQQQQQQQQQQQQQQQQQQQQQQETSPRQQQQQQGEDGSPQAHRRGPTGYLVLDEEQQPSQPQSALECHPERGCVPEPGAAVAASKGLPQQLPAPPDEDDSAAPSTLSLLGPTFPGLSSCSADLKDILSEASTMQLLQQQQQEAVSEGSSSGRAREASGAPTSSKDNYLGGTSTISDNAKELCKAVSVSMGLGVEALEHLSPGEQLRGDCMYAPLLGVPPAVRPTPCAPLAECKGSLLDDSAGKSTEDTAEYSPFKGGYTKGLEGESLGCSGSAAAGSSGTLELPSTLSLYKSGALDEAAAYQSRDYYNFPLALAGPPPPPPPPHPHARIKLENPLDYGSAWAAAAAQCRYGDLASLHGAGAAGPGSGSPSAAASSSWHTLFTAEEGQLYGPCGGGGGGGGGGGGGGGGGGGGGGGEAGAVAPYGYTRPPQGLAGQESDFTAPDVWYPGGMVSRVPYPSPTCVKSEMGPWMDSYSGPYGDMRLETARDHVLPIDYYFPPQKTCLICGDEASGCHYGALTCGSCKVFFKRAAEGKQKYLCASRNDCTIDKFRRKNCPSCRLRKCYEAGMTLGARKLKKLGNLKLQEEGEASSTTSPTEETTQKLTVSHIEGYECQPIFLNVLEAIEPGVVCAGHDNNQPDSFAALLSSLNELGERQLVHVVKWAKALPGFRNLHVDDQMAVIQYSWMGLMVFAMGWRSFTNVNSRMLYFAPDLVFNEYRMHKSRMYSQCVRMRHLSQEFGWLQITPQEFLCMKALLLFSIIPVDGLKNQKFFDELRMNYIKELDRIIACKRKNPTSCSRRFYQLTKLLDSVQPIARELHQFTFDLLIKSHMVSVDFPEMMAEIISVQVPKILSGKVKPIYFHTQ
Format: cell-based
Experimental: To determine the global effect of the various AIS mutations on AR signaling, each was analyzed using HCA. This technology allows simultaneous quantification of AR protein expression, nuclear translocation, subnuclear patterning, and transcriptional activity. The analysis was done in HeLa cell lines stably transfected with wild type or mutant ARs fused with green fluorescent protein, or using AR immunofluorescence in primary cultures of genital skin fibroblasts generated from foreskin biopsies of historical AIS patients, or of normal neonates undergoing circumcision at birth. To prevent the effects of receptor over-expression, stable HeLa cells were carefully selected to express AR levels similar to LNCaP as previously described. Prior to ligand treatment, HeLa cells were transfected with the pARR2PB-dsRED2skl reporter plasmid, consisting of the AR responsive promoter ARR2PB [31] driving expression of the red fluorescent protein reporter dsRED2skl engineered to target peroxisomes.
For studies utilizing HeLa GFP-AR cell lines, twenty-four hours before transfection with pARR2PB-dsRED2skl, cells were plated onto 100 mm plastic dishes in medium supplemented with 5% charcoal-stripped and dialyzed-FBS. Transient introduction of the pARR-2PB-dsRED2skl reporter construct was performed using 6.0 µg reporter plasmid and 6.0 µg carrier DNA (BlueScript, Stratagene, San Diego, CA) using Transfectin (Biorad) following standard protocols. After 8-hour incubation, DNA/lipid complexes were removed. Cells were then trypsinized and replated at 10,000 cells per well in Nunc poly-D-lysine treated 96-well optical glass bottom plates and incubated an additional 12 hours to allow for cell adhesion. […] Compound dilutions and final addition to multi-well plates were performed using a Beckman Biomek NX robotic platform to ensure repeatability from experiment to experiment. After incubation was complete, using the Biomek NX robot, plates were washed with PBS and fixed for 20 min at RT in 4% formaldehyde prepared in CSK buffer (80 mM potassium PIPES, pH 6.8, 5 mM EGTA, 2 mM MgCl2). After fixation, cells were briefly permeabilized (5 min) with 0.5% Triton-X and prepared for imaging by washing in PBS, aspirating the washed solution, and adding a 1 ng/ml DAPI solution to stain DNA and a generic protein stain (CellMask, Invitrogen) to facilitate cell and nuclear image segmentation. Cells were imaged in PBS.
Cells were imaged using the Cell Lab IC-100 Image Cytometer (IC-100; Beckman Coulter) platform that consists of 1) Nikon Eclipse TE2000-U Inverted Microscope (Nikon; Melville, NY); 2) Chroma 82000 triple band filter set (Chroma; Brattleboro, VT); 3) an imaging camera: Hamamatsu ORCA-ER Digital CCD camera (Hamamatsu; Bridgewater, NJ); and 4) a focusing camera: Photonics COHU Progressive scan camera (Photonics; Oxford, MA). […] In general, 49 to 64 images were captured per well for image analysis.
Initially, the background signal was removed from all images using plate- and channel-specific correction images, generated by the sum projection of >600 randomly selected images for each channel from the image set. This allows for a pixel-by-pixel background subtraction that compensates any consistent uneven background artifacts in the image set. Furthermore, users are able to customize the degree of background subtraction by applying a multiplier to each correction image, useful for identification of objects such as nuclei or cell borders. […]

## C[C@@H]1CC2=CC(=O)CC[C@@H]2[C@H]2CC[C@@]3(C)[C@@H](CC[C@]3(C)O)[C@@H]21 [Mb, Mibolerone]
HeLa Wild Type, % signal present in the nucleus, Mean±S.E.M.
  Percent Signal in Nucleus, Max: 80.5±1.9%
HeLa Wild Type, absolute numerical measurement
  Hyperspeckling, Max: 1101±61
HeLa Wild Type, pARR2PB-dsRED2skl reporter, absolute numerical measurement
  Transcriptional Activity, Max: 113±1.4
HeLa wild type GFP-AR, vs untreated
  increase in the percent of the GFP signal in the nucleus: approximately 30%
HeLa-AR cells, 1440 min
  factor between EC50 for nuclear translocation and EC50 for hyperspeckling and transcriptional activity: approximately 30 fold
